Measured values as given in patent US6750378B2, “Maize H3C4 promoter combined with the first intron of rice actin, chimeric gene comprising it and transformed plant” (Rhone-Poulenc Agro, priority 1997, dated 2004).

Columns and labels:
[1] = test system: maize lines transformed with corresponding gene with maize adh I intron; assay: Comparative study of herbicide tolerance, maize lines transformed with the corresponding gene with maize adh I intron; type: in vivo; settings: 20 maize lines, spraying 200 g of active material per hectare (600 μg per tub)
Procedure: (§1) 800 ml of Fontainebleau sand are placed in a tub of sides 15×20 cm. These tubs are then sprinkled with water and kept moist by supplying a nutrient solution consisting of 5 ml of Quinoligo (Quinoline) per liter of water. Twenty maize seeds are placed in the tubs, which are then treated with isoxaflutole by spraying at a rate of 100 g of active material per hectare (300 μg of active material per tub). The tubs are then cultured in a greenhouse. The phytotoxicity is determined 14 [lacuna] after planting. […] A comparative study was carried out with 20 maize lines transformed according to the invention and 20 maize lines transformed with a corresponding gene for which the sequence encoding the first intron of rice actin has been replaced with the sequence encoding the maize adh I intron. After treating by spraying very high doses of isoxafutole at a rate of 200 g of active material per hectare (600 μg of active material per tub), the following results are obtained: […]

[2] = test system: maize lines transformed according to the invention (H3C4 promoter + first intron of rice actin); assay: Comparative study of herbicide tolerance, maize lines transformed according to the invention (rice actin intron); type: in vivo; settings: 20 maize lines, spraying 200 g of active material per hectare (600 μg per tub)
Procedure: as §1

CS(=O)(=O)c1cc(C(F)(F)F)ccc1C(=O)c1cnoc1C1CC1 [isoxaflutole]
lines tolerant [1]: 3/20 | lines tolerant [2]: 8/20
